In patent US6365584B1, “Arylysulphonamide-substituted benzimidazoles having tryptase-inhibiting activity” (Boehringer Ingelheim Pharma KG, priority 1999, dated 2002):
Where a name gives a salt, the structure may show the parent alone.

Target: T1, rh beta tryptase (Homo sapiens, UniProt Q15661)
T1 construct: purchased Promega
Assay: tryptase inhibition test (cleavage of N-p-tosyl-Gly-Pro-Lys-para-nitroaniline, p-nitroaniline measured at 405 nm)
Assay type: biochemical
Details: Tris HCl buffer pH 7.4 with calcium and heparin; substrate 0.6 mM; 5 min pre-incubation, 5 min incubation at 37° C.; enzyme activity 0.91 U/ml
Experimental: The compounds according to the invention are characterised by their tryptase-inhibiting activity. This ability to inhibit tryptase was investigated using the test described below. The measurement is carried out in Tris HCl buffer (100 mM), which additionally contains calcium (5 mM) and heparin (100 mg/ml), at pH 7.4. The standard used is rh beta tryptase which may be obtained commercially from Promega, for example. The substrate used is N-p-tosyl-Gly-Pro-Lys-para-nitroaniline in a concentration of 0.6 mM. The substrate is digested with tryptase to form p-nitroaniline which can be measured at 405 nm. Usually, an incubation period of 5 minutes and an incubation temperature of 37° C. are chosen. The enzyme activity used is 0.91 U/ml. The measurements are carried out in an Autoanalyser (CobasBio) made by Hofmann LaRoche. The potential inhibitory substances are used in concentrations of 10 μM in the screening, the inhibition of the tryptase being given in percent. The IC50 is determined at over 70% inhibition (concentration at which 50% of the enzyme activity is inhibited). After 5 minutes' pre-incubation of the potential inhibitory substances, the substrate is added to start the reaction, the formation of p-nitroaniline being taken as a measurement of the enzyme activity after 5 minutes, after testing the linearity.
The data obtained after the above test has been carried out (IC50 values) can be found in Table 3.

T1 sequence (Q15661 31-275): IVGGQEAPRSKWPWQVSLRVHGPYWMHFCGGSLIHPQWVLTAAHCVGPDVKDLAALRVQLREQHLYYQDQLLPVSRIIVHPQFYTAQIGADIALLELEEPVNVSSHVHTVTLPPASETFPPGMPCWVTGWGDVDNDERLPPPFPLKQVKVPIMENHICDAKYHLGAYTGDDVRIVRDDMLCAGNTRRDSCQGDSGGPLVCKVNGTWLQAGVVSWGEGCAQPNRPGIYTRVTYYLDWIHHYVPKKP

| IC50 | Compound |
| --- | --- |
| 22 nM | Cn1c(CCc2ccc(C(=N)N)cc2)nc2cc(N(Cc3cccnc3)S(=O)(=O)c3ccc4ccccc4c3)ccc21 [Example 45, 1-Methyl-2-[2-(4-amidino-phenyl)-ethyl]-5-[N-(pyrid-3-yl-methyl)-naphth-2-ylsulphonyl-amino]-benzimidazole;] |
| 44 nM | Cn1c(CCc2ccc(C(=N)N)cc2)nc2cc(N(CCN3CCCCC3)S(=O)(=O)c3ccccc3)ccc21 [Example 33, 1-methyl-2-[2-(4-amidino-phenyl)-ethyl]-5-[N-(2-piperidin-1-ylethyl)-benzene-sulphonylamino]-benzimidazole] |
| 82 nM | Cn1c(CCc2ccc(C(=N)N)cc2)nc2cc(N(C3CCNC3)S(=O)(=O)c3ccccc3)ccc21 (stereo not shown) [Example 14, 1-methyl-2-[2-(4-amidino-phenyl)-ethyl]-5-[N-(3-pyrrolidinyl)-benzenesulphonyl-amino]-benzimidazole] |
| 27 nM | CN(C)CCCCN(c1ccc2c(c1)nc(CCc1ccc(C(=N)N)cc1)n2C)S(=O)(=O)c1ccccc1 [Example 54, 1-Methyl-2-[2-(4-amidino-phenyl)-ethyl]-5-[N-(4-dimethyl-aminobutyl)-benzenesulphonyl-amino]-benzimidazole] |
| 121 nM | CCN(CC)CCN(c1ccc2c(c1)nc(CCc1ccc(C(=N)N)cc1)n2CCO)S(=O)(=O)c1ccccc1 [Example 16, 1-(2-hydroxyethyl)-2-[2-(4-amidinophenyl)-ethyl]-5-[N-(2-diethylaminoethyl)-benzene-sulphonylamino]-benzimidazole] |
| 62 nM | CN1CCCC1CN(c1ccc2c(c1)nc(CCc1ccc(C(=N)N)cc1)n2C)S(=O)(=O)c1ccccc1 (stereo not shown) [Example 9, 1-methyl-2-[2-(4-amidino-phenyl)-ethyl]-5-[N-(1-methyl-pyrrolidin-2-yl-methyl)-benzene-sulphonyl-amino]-benzimidazole] |
| 215 nM | Cn1c(CCc2ccc(C(=N)N)cc2)nc2cc(N(CC(=O)N3CCN(Cc4ccccc4)CC3)S(=O)(=O)c3ccc4ccccc4c3)ccc21 [Example 50, 1-Methyl-2-[2-(4-amidino-phenyl)-ethyl]-5-[N-(4′-benzyl-piperazin-1-yl-carbonylmethyl)-naphth-2-ylsulphonylamino]-benzimidazole] |
| 179 nM | CN1CCC(N(c2ccc3c(c2)nc(CCc2ccc(C(=N)N)cc2)n3C)S(=O)(=O)c2ccccc2)CC1 [Example 12, 1-methyl-2-[2-(4-amidino-phenyl)-ethyl]-5-[N-(1-methyl-piperidin-4-yl)-benzene-sulphonylamino]-benzimidazole] |
| 100 nM | CCN(CC)CCN(c1ccc2c(c1)nc(CCc1ccc(CN)cc1)n2C)S(=O)(=O)c1ccccc1 [Example 5, N-{2-[2-(4-aminomethyl-phenyl)-ethyl]-1-methyl-benzimidazol-5-yl}-N-diethylaminoethyl-(benzenesulphonamide)-dihydrochloride] |
| 123 nM | CN(C)c1ccc(CN(c2ccc3c(c2)nc(CCc2ccc(C(=N)N)cc2)n3C)S(=O)(=O)c2ccccc2)cc1 [Example 4, N-{2-[2-(4-amidinophenyl)-ethyl]-1-methyl-benzimidazol-5-yl}-N-(4-dimethylaminobenzyl)-(benzenesulphonamide)-dihydrochloride] |
| 38 nM | CCN(CC)CCN(c1ccc2c(c1)nc(CCc1ccc(C(=N)N)cc1)n2C)S(=O)(=O)c1cccc2cnccc12 [Example 53, 1-Methyl-2-[2-(4-amidino-phenyl)-ethyl]-5-[N-(2-diethyl-aminoethyl)-isoquinol-5-yl-sulphonylamino]-benzimidazole;] |
| 25 nM | CCN(CC)CCN(c1ccc2c(c1)nc(CCc1ccc(C(=N)N)cc1)n2C)S(=O)(=O)c1ccccc1 [Example 2, N-{2-[2-(4-amidinophenyl)-ethyl]-1-methyl-benzimidazol-5-yl}-N-diethylaminoethyl-(benzenesulphonamide)-dihydrochloride] |
| 76 nM | Cn1c(CCc2ccc(C(=N)N)cc2)nc2cc(N(C3CCN(Cc4ccccc4)CC3)S(=O)(=O)c3ccccc3)ccc21 [Example 13, 1-methyl-2-[2-(4-amidino-phenyl)-ethyl]-5-[N-(1-benzyl-piperidin-4-yl)-benzene-sulphonylamino]-benzimidazole] |
| 412 nM | CCN(CC)CCN(c1ccc2c(c1)nc(CCc1ccc(C(=N)N)cc1)n2CCCc1ccccc1)S(=O)(=O)c1ccccc1 [Example 25, 1-(3-phenylpropyl)-2-[2-(4-amidinophenyl)-ethyl]-5-[N-(2-diethylaminoethyl)-benzene-sulphonylamino]-benzimidazole] |
| 30 nM | Cn1c(CCc2ccc(C(=N)N)cc2)nc2cc(N(CC(=O)N3CCC(Cc4ccccc4)CC3)S(=O)(=O)c3ccc4ccccc4c3)ccc21 [Example 46, 1-Methyl-2-[2-(4-amidino-phenyl)-ethyl]-5-[N-(4′-benzyl-piperid-1-yl-carbonylmethyl)-naphth-2-ylsulphonylamino]-benzimidazole] |
| 29 nM | CCN(CC)CCN(c1ccc2c(c1)nc(CCc1ccc(C(=N)N)cc1)n2C)S(=O)(=O)c1cccc2cccnc12 [Example 52, 1-Methyl-2-[2-(4-amidino-phenyl)-ethyl]-5-[N-(2-diethyl-aminoethyl)-quinol-8-yl-sulphonylamino]-benzimidazole;] |
| 292 nM | CCCn1c(CCc2ccc(C(=N)N)cc2)nc2cc(N(CCN(CC)CC)S(=O)(=O)c3ccccc3)ccc21 [Example 18, 1-n-propyl-2-[2-(4-amidino-phenyl)-ethyl]-5-[N-(2-diethyl-aminoethyl)-benzenesulphonyl-amino]-benzimidazole] |
| 35 nM | 1-Methyl-2-[2-(4-amidino- phenyl)-ethyl]-5-[N-(4′-(3″- hydroxypropyl)-piperazin-1-yl- carbonylmethyl)-naphth-2-yl- sulphonylamino]-benzimidazole [Example 51] |
| 90 nM | Cn1c(CCc2ccc(C(=N)N)cc2)nc2cc(N(C3CCNCC3)S(=O)(=O)c3ccccc3)ccc21 [Example 11, 1-methyl-2-[2-(4-amidino-phenyl)-ethyl]-5-[N-(4-piperidinyl)-benzenesulphonyl-amino]-benzimidazole] |
| 43 nM | Cn1c(CCc2ccc(C(=N)N)cc2)nc2cc(N(CCN3CCCC3)S(=O)(=O)c3ccccc3)ccc21 [Example 34, 1-methyl-2-[2-(4-amidino-phenyl)-ethyl]-5-[N-(2-pyrrolidin-1-ylethyl)-benzene-sulphonylamino]-benzimidazole] |
| 6.6 nM | CCN(CC)CCN(c1ccc2c(c1)nc(CCc1ccc(C(=N)N)cc1)n2C)S(=O)(=O)c1ccc2ccccc2c1 [Example 35, 1-methyl-2-[2-(4-amidino-phenyl)-ethyl]-5-[N-(2-diethylaminoethyl)-naphth-2-yl-sulphonylamino]-benzimidazole] |
| 27 nM | CCN(CC)CCN(c1ccc2c(c1)nc(CCc1ccc(C(=N)N)cc1)n2C)S(=O)(=O)c1cccc2ccccc12 [Example 28, 1-methyl-2-[2-(4-amidino-phenyl)-ethyl]-5-[N-(2-diethyl-aminoethyl)-naphth-1-yl-sulphonylamino]-benzimidazole] |
| 239 nM | CCN(CC)CCN(c1ccc2c(c1)nc(CCc1ccc(C(=N)N)cc1)n2CCCO)S(=O)(=O)c1ccccc1 [Example 19, 1-(3-hydroxypropyl)-2-[2-(4-amidinophenyl)-ethyl]-5-[N-(2-diethylaminoethyl)-benzene-sulphonylamino]-benzimidazole] |
| 273 nM | CCN(CC)CCN(c1ccc2c(c1)nc(CCc1ccc(C(=N)N)cc1)n2CC1CCCO1)S(=O)(=O)c1ccccc1 (stereo not shown) [Example 27, 1-(2-tetrahydrofurylmlethyl)-2-[2-(4-amidinophenyl)-ethyl]-5-[N-(2-diethylaminoethyl)-benzenesulphonylamino]-benzimidazole] |
| 132 nM | CCOCCCn1c(CCc2ccc(C(=N)N)cc2)nc2cc(N(CCN(CC)CC)S(=O)(=O)c3ccccc3)ccc21 [Example 3, N-{2-[2-(4-amidinophenyl)-ethyl]-1-(3-ethoxy-propyl)-benzimidazol-5-yl}-N-diethylaminoethyl-(benzenesulphonamide)-dihydrochloride] |
| 28 nM | CN1CCCN(C(=O)CN(c2ccc3c(c2)nc(CCc2ccc(C(=N)N)cc2)n3C)S(=O)(=O)c2ccccc2)CC1 [Example 55, 1-Methyl-2-[2-(4-amidino-phenyl)-ethyl]-5-[N-(4-methyl-1,4-diazepin-1-yl-carbonyl-methyl)-benzenesulphonyl-amino]-benzimidazole] |
| 144 nM | Cn1c(CCc2ccc(C(=N)N)cc2)nc2cc(N(CC(=O)N3CCNCC3)S(=O)(=O)c3ccc4ccccc4c3)ccc21 [Example 48, 1-Methyl-2-[2-(4-amidino-phenyl)-ethyl]-5-[N-(piperazin-1-yl-carbonylmethyl)-naphth-2-ylsulphonylamino]-benzimidazole] |
| 89 nM | CN1CCC(CN(c2ccc3c(c2)nc(CCc2ccc(C(=N)N)cc2)n3C)S(=O)(=O)c2ccccc2)C1 (stereo not shown) [Example 8, 1-methyl-2-[2-(4-amidino-phenyl)-ethyl]-5-[N-(1-methyl-pyrrolidin-3-yl-methyl)-benzene-sulphonyl-amino]-benzimidazole] |
